Patent EP4291552B1, “MODULATORS OF COMPLEX I” (Boehringer Ingelheim International GmbH, priority 2021, dated 2022)
Like-named read-outs stand apart in the source and are kept apart here.

Tests used:
[1] = test system: mice neuroblastoma cells (HT-22); assay: Determination of Cellular Protection (HT22); settings: Mus musculus, HT-22, 16 h, read-out: HT22 IC50
Complex I = Complex I (Bos taurus, UniProt P25708); assay: Determination of Complex I mediated ROS-inhibition (CI); assay type: biochemical, bovine; settings: read-out: CI IC50

Structure (SMILES) | IC50 [1] | other results
CC(C)Nc1ccc2c(c1)/C(=C1\CCOCCN1)C(=O)N2C1CCOCC1 [Compound 30] | 135 nM | IC50 (Complex I; Complex I purified from bovine heart, ROS detected via Amplex Red/horse radish peroxidase, 8 point concentration-response): 195 nM
CC1COC/C(=C2/C(=O)N(C3CCOCC3)c3ccc(N4C(C)CCC4C)cc32)N1 (centres unmarked) [Compound 93] | 101 nM | –
CC(Nc1ccc2c(c1)/C(=C1\COCCN1)C(=O)N2C(C)C)c1nccs1 (centres unmarked) [Compound 144] | 85 nM | –
CNc1ccc2c(c1)/C(=C1\CCCN1)C(=O)N2C1CCOCC1 [Compound 43] | 124 nM | –
CC(C)N1C(=O)/C(=C2/COCCN2)c2cc(NCc3cc[nH]n3)ccc21 [Compound 74] | 144 nM | –
CN(C)c1ccc2c(c1)/C(=C1\CCCN1)C(=O)N2C1CCN(C(=O)C(F)(F)F)CC1 [Compound 153] | 170 nM | –
CC(Nc1ccc2c(c1)/C(=C1\COCCN1)C(=O)N2C1CCOCC1)c1cnccn1 (centres unmarked) [Compound 146] | 211 nM | –
CC1CCC(C)N1c1ccc2c(c1)/C(=C1\CCOCCN1)C(=O)N2C1CCOCC1 (centres unmarked) [Compound 29] | 142 nM | –
CCC(C)Nc1ccc2c(c1)/C(=C1\COCCN1)C(=O)N2C1CCOCC1 (centres unmarked) [Compound 59] | 22 nM | –
CC(C)N1C(=O)/C(=C2/COCCN2)c2cc(N3CCOCC3)ccc21 [Compound 166] | 649 nM | –
CCOC(=O)N1CCC(N2C(=O)/C(=C3/COCCN3)c3cc(N(C)C)ccc32)CC1 [Compound 89] | 493 nM | –
CC(C)Nc1ccc2c(c1)/C(=C1\CN(C(C)C)CCN1)C(=O)N2C1CCOCC1 [Compound 46] | 48 nM | –
COCC(C)Nc1ccc2c(c1)/C(=C1\COCCN1)C(=O)N2C1CCOC1 (centres unmarked) [Compound 52] | 198 nM | –
CC1CCCC1Nc1ccc2c(c1)/C(=C1\COCCN1)C(=O)N2C1CCOCC1 (centres unmarked) [Compound 102] | 3 nM | –
CC(Nc1ccc2c(c1)/C(=C1\COCCN1)C(=O)N2C1COC1)C1CC1 (centres unmarked) [Compound 67] | 37 nM | –
COC1COCCC1Nc1ccc2c(c1)/C(=C1\COCCN1)C(=O)N2C1CCOCC1 (centres unmarked) [Compound 149] | 2940 nM | –
CC(Nc1ccc2c(c1)/C(=C1\COCCN1)C(=O)N2C(C)C)C1CCCC1 (centres unmarked) [Compound 56] | 2 nM | –
CN(C)c1ccc2c(c1)/C(=C1\CCCN1)C(=O)N2C1CCOCC1 [Compound 42] | 951 nM | –
CN1[C@@H]2CC[C@H]1CC(Nc1ccc3c(c1)/C(=C1\COCCN1)C(=O)N3C1CCOCC1)C2 (some centres unmarked) [Compound 101] | 369 nM | IC50 (Complex I): 202 nM
Nc1ccc2c(c1)/C(=C1\CCCN1)C(=O)N2C1CCOCC1 [Compound 83] | 2080 nM | –
CC(C)Nc1ccc2c(c1)/C(=C1\COCCN1)C(=O)N2[C@H]1CCN(C(C)C)C1 [Compound 31] | 41 nM | –

Structure (SMILES) | IC50 [1] | other results
O=C1/C(=C2/COCCN2)c2cc(N3CCOCC3)ccc2N1C1CCOCC1 [Compound 4] | 3140 nM | –
CC(C)N1C(=O)/C(=C2/COCCN2)c2cc(NC3CCCC3)ccc21 [Compound 94] | 27 nM | –
CC(=O)N1CCC2(CC1)CN/C(=C1\C(=O)N(C(C)C)c3ccc(NC(C)C)cc31)CO2 [Compound 34] | 49 nM | –
CC(C)Nc1ccc2c(c1)C(=C1CCOCC1)C(=O)N2C1CCOCC1 [Compound 6] | 207 nM | –
CC(C)Nc1ccc2c(c1)/C(=C1\CCCCN1)C(=O)N2C(C)C [Compound 133] | 23 nM | –
CC(C)Nc1ccc2c(c1)/C(=C1\COCC(C)N1)C(=O)N2C1CCOCC1 (centres unmarked) [Compound 33] | 37 nM | –
CN1C(=O)/C(=C2/CCN(C(=O)OCc3ccccc3)CCN2)c2cc(N3CCCC3)ccc21 [Compound 152] | 47 nM | –
CC(C)N1C(=O)C(=C2CCOCC2)c2cc(NC3CCCC3)ccc21 [Compound 116] | 9 nM | –
CC(C)N1C(=O)/C(=C2/COCCN2)c2cc(NC3COC3)ccc21 [Compound 98] | 166 nM | –
CC(C)Nc1ccc2c(c1)/C(=C1\CN(C(C)C)CCN1)C(=O)N2C(C)C [Compound 88] | 10 nM | –
CC(C)N1C(=O)/C(=C2/CCOCCN2)c2cc(N3CCCC3)ccc21 [Compound 129] | 23 nM | –
CC(C)N1C(=O)C(=C2CCOCC2)c2cc(NC3CCOC3)ccc21 (centres unmarked) [Compound 160] | 471 nM | –
O=C1/C(=C2/COCCN2)c2cc(NC3CCOC3)ccc2N1C1CCOC1 (centres unmarked) [Compound 168] | 439 nM | –
O=C1/C(=C2/COCCN2)c2cc(NCc3cc[nH]n3)ccc2N1C1CCOCC1 [Compound 21] | 253 nM | –
CC(C)N1C(=O)/C(=C2/COCCN2)c2cc(NC3C[C@H]4CC[C@@H](C3)N4C)ccc21 (some centres unmarked) [Compound 123] | 17 nM | IC50 (Complex I): 916 nM
O=C1/C(=C2/COCCN2)c2cc(NC3CCOCC3F)ccc2N1C1CCOCC1 (centres unmarked) [Compound 80] | 345 nM | –
CC(C)N1CCN/C(=C2\C(=O)N(C)c3ccc(N4CCCC4)cc32)C1 [Compound 23] | 173 nM | –
CC(C)Nc1ccc2c(c1)/C(=C1\CN(C3COC3)CCN1)C(=O)N2C(C)C [Compound 114] | 104 nM | –
O=C1/C(=C2/COCCN2)c2cc(N3CCCCC3)ccc2N1C1CCOCC1 [Compound 86] | 1110 nM | –
CN1C(=O)/C(=C2/CCOCCN2)c2cc(N3CCCC3)ccc21 [Compound 107] | 69 nM | –
CC1CCC(C)N1c1ccc2c(c1)/C(=C1\COCCCN1)C(=O)N2C1CCOCC1 (centres unmarked) [Compound 142] | 94 nM | –

Structure (SMILES) | IC50 [1] | other results
O=C1/C(=C2/COCCN2)c2cc(NC3COC3)ccc2N1C1CCOCC1 [Compound 175] | 1190 nM | –
O=C1/C(=C2/CCN(C3COC3)CCN2)c2cc(N3CCCC3)ccc2N1C1CCOCC1 [Compound 121] | 192 nM | –
CC(=O)N1CCC2(CC1)CN/C(=C1\C(=O)N(C(C)C)c3ccc(N4CCCC4)cc31)CO2 [Compound 53] | 55 nM | –
CC(C)N1C(=O)/C(=C2/COCCN2)c2cc(NC3CCN(C)CC3)ccc21 [Compound 38] | 38 nM | –
CC(C)N1C(=O)C(=C2CCOCC2)c2cc(N)ccc21 [Compound 157] | 1660 nM | –
O=C1/C(=C2/COCCCN2)c2cc(NC3CCOC3)ccc2N1C1CCOCC1 (centres unmarked) [Compound 141] | 646 nM | –
O=C1/C(=C2/COCCN2)c2cc(NCC3CCOCC3)ccc2N1C1CCOCC1 [Compound 81] | 233 nM | –
CC(C)N1C(=O)/C(=C2/COCCN2)c2cc(NC(C)C(C)(C)C)ccc21 (centres unmarked) [Compound 55] | 38 nM | –
Nc1ccc2c(c1)/C(=C1\COCCN1)C(=O)N2C1CCOCC1 [Compound 35] | 2720 nM | –
CC(Nc1ccc2c(c1)/C(=C1\COCCN1)C(=O)N2C1CCOCC1)C1CCCC1 (centres unmarked) [Compound 61] | 12 nM | –
CN(C)c1ccc2c(c1)/C(=C1\CCN(C(=O)OCc3ccccc3)CCN1)C(=O)N2C [Compound 108] | 128 nM | –
CC(Nc1ccc2c(c1)/C(=C1\COCCN1)C(=O)N2C1CCOCC1)c1cccnc1 (centres unmarked) [Compound 100] | 397 nM | –
CC(Nc1ccc2c(c1)/C(=C1\COCCN1)C(=O)N2C1CCOCC1)c1cncnc1 (centres unmarked) [Compound 147] | 422 nM | –
CC(C)N1C(=O)/C(=C2/CCCN2C)c2cc(NC3CCC3)ccc21 [Compound 161] | 20 nM | –
CC1OCCC1Nc1ccc2c(c1)/C(=C1\COCCN1)C(=O)N2C1CCOCC1 (centres unmarked) [Compound 174] | 143 nM | –
CC(Nc1ccc2c(c1)/C(=C1\COCCN1)C(=O)N2C1CCOCC1)c1ccnn1C (centres unmarked) [Compound 79] | 221 nM | –
CCC(CC)Nc1ccc2c(c1)/C(=C1\COCCN1)C(=O)N2C1COC1 [Compound 136] | 18 nM | –
CN(C)c1ccc2c(c1)/C(=C1\CCCCN1)C(=O)N2C [Compound 62] | 162 nM | –
CC(Nc1ccc2c(c1)/C(=C1\COCCN1)C(=O)N2C1CCOCC1)C1CC1 (centres unmarked) [Compound 20] | 34 nM | –
CC(Nc1ccc2c(c1)/C(=C1\COCCN1)C(=O)N2C1CCOCC1)C1CCC1 (centres unmarked) [Compound 148] | 16 nM | –
CC(=O)N1CCN/C(=C2\C(=O)N(C(C)C)c3ccc(NC(C)C)cc32)C1 [Compound 159] | 80 nM | –

Structure (SMILES) | IC50 [1] | other results
CN(C)c1ccc2c(c1)/C(=C1\CCOCCN1)C(=O)N2C [Compound 41] | 983 nM | –
CC(C)N1C(=O)/C(=C2/COCCN2)c2cc(NC3CCOCC3)ccc21 [Compound 36] | 56 nM | –
CC(C)N1CCC(N2C(=O)/C(=C3/COCCN3)c3cc(N(C(C)C)C(C)C)ccc32)CC1 [Compound 122] | 944 nM | –
CC1CCC(C)N1c1ccc2c(c1)/C(=C1\COCCN1)C(=O)N2C1CCOC1 (centres unmarked) [Compound 162] | 61 nM | –
O=C1/C(=C2/COCCN2)c2cc(NC3CCC3)ccc2N1C1CCOCC1 [Compound 132] | 21 nM | –
CN(C)c1ccc2c(c1)/C(=C1/NCCN1c1ccccc1)C(=O)N2C [Compound 106] | 142 nM | –
CC1CCC(C)N1c1ccc2c(c1)/C(=C1\COCCN1)C(=O)N2C (centres unmarked) [Compound 84] | 141 nM | –
COC1COCCC1Nc1ccc2c(c1)/C(=C1\COCCN1)C(=O)N2C(C)C (centres unmarked) [Compound 16] | 693 nM | –
CN1C(=O)/C(=C2/CCN(C3CCOC3)CCN2)c2cc(N3CCCC3)ccc21 (centres unmarked) [Compound 155] | 214 nM | –
CC(C)Nc1ccc2c(c1)/C(=C1\COCCN1)C(=O)N2C(C)(C)C [Compound 90] | 32 nM | –
O=C1/C(=C2/COCCN2)c2cc(NC3CCC(F)(F)CC3)ccc2N1C1CCOCC1 [Compound 78] | 37 nM | –
CC(C)N1CCC2(CC1)CN/C(=C1\C(=O)N(C(C)C)c3ccc(N4C(C)CCC4C)cc31)CO2 (centres unmarked) [Compound 139] | 18 nM | –
CC(Nc1ccc2c(c1)/C(=C1\COCCN1)C(=O)N2C(C)C)c1cncnc1 (centres unmarked) [Compound 126] | 179 nM | –
CC(C)Nc1ccc2c(c1)/C(=C1\COCCCN1)C(=O)N2C1CCOCC1 [Compound 167] | 134 nM | –
O=C1/C(=C2/CCOCCN2)c2cc(NC3CCOC3)ccc2N1C1CCOCC1 (centres unmarked) [Compound 140] | 524 nM | –
CCOC(=O)N1CCC(N2C(=O)/C(=C3/COCCN3)c3cc(N4CCCC4)ccc32)CC1 [Compound 118] | 33 nM | –
CC(Nc1ccc2c(c1)/C(=C1\COCCN1)C(=O)N2C(C)C)C1CCC1 (centres unmarked) [Compound 37] | 3 nM | –
CC(C)N1CCC(Nc2ccc3c(c2)/C(=C2\COCCN2)C(=O)N3C2CCOCC2)CC1 [Compound 19] | 168 nM | –
CN1C(=O)/C(=C2/COCCN2)c2cc(NC3CC4CCC(C3)N4C)ccc21 (centres unmarked) [Compound 131] | 111 nM | IC50 (Complex I): 189 nM
